Experiments:
[1] = test system: BaF3-EPOR-JAK2V617F cell line; experiment: BaF3-JAK2(V617F)-EPOR cell line proliferation assay (CellTiter-Glo), combination study; type: cell-based; settings: 96 hours, FIG. 1
Protocol: (§1) Test compounds are dissolved at 10 mM DMSO stock solution. Transfer 45 uL of stock solution to a 384 PP-plate. Perform 3 fold, 10-point dilution via transferring 15 uL compound into 30 μL DMSO by using TECAN (EVO200) liquid handler. The plates are spin at room temperature at 1,000 RPM for 1 minute and shake at a plate shaker for 2 minutes. Transfer Compound A and Compound B of diluted compound from compound source plate into the cell plate by using liquid handler Echo665. Harvest the cells from flask into cell culture medium and then count the cell number. Dilute the cells with culture medium to the desired density and 40 μL of cell suspension is added into 384-well plate contain compound. Low control is adding cell culture medium. The final seeding density for SET-2 and BaF3-EPOR-JAK2V617F cell lines are 2,000 cells/well and 1000 cells/well respectively. Cover the plates with lid and mix the plate on orbital shaker (700-900 rpm) for 1 min, transfer the plates into 37° C. 5% CO2 incubator for 4 days culture. After compound treatment for 96 hours, remove the plate from incubators and equilibrated at room temperature for 15 minutes. Add CellTiter-Glo reagent into each well.
(§2) Place the plate on an orbital shaker, and shake at 500-700 rpm to facilitate cell lysis and ATP extraction from the cells. Measure luminescence after 5-10 minutes using BMG.

SET-2 cell line = SET-2 cell line proliferation assay (CellTiter-Glo), combination study; type: cell-based; settings: 96 hours, FIG. 2
Protocol: as §1, §2

[2] = in combination with Ruxolitinib

Cn1ccn(-c2ccc(-c3cc(F)cc(-c4cccc(N5CCN(C(C)(C)C)CC5)c4)c3O)cc2Cl)c1=O [Compound I-1, 1-(3″-(4-(tert-butyl)piperazin-1-yl)-3-chloro-5′-fluoro-2′-hydroxy-[1,1′:3′,1″-terphenyl]-4-yl)-3-methyl-1,3-dihydro-2H-imidazol-2-one]
suppresses proliferation: proliferation of the BaF3-EPOR-JAK2V617F cell line ([1]; compound alone) | proliferation of the BaF3-EPOR-JAK2V617F cell line [1, 2] | proliferation of the SET-2 cell line (SET-2 cell line; compound alone) | proliferation of the SET-2 cell line (SET-2 cell line; [2])

Reference: patent US20240226096A1, “TREATMENT OF MYELOPROLIFERATIVE DISEASES AND DISORDERS WITH INHIBITORS OF BET FAMILY BDII BROMODOMAIN” (POSEIDON INNOVATION 1, INC., priority 2022, published 2024)
